Reference: patent US7531482B2, “Thieno-pyrimidine compounds having fungicidal activity” (Dow AgroSciences LLC, priority 2005, dated 2009)

Assays:
Format in all cases: in vivo
Erysiphe cichoracaerum = experiment: Cucumber Powdery Mildew (ERYSCI) whole-plant disease control test; settings: Erysiphe, foliar; 200 ppm applied to foliage of cucumber; inoculated one day after treatment; read-out: ERYSCI disease control
Leptosphaeria nodorum = experiment: Glume Blotch of Wheat (LEPTNO) whole-plant disease control test; settings: Parastagonospora nodorum, foliar; for pest or weed control at 200 ppm: 200 ppm applied to foliage of wheat, inoculated one day after treatment, read-out: LEPTNO disease control
[1] = tested on: Magnaporthe grisea=Pyricularia oryzae; experiment: whole plant or invertebrate; settings: Pyricularia oryzae, foliar; for pest or weed control at 200 ppm: read-out: PYRIOR disease control, 200 ppm applied to foliage of rice, inoculated one day after treatment
[2] = tested on: Puccinia recondita tritici; experiment: Leaf Rust of Wheat (PUCCRT) whole-plant disease control test; settings: Puccinia recondita, foliar, 200 ppm applied to foliage of wheat; inoculated one day after treatment; read-out: PUCCRT disease control
Phytophthora infestans = experiment: whole plant or invertebrate; settings: Phytophthora infestans, in Solanum lycopersicum, foliar, read-out: PHYTIN disease control, 200 ppm applied to foliage of tomato; inoculated one day after treatment
Colletotricum lagenarium = experiment: Cucumber Anthracnose (COLLLA) whole-plant disease control test; settings: Cucumis sativus, foliar; 200 ppm applied to foliage of cucumber; inoculated one day after treatment; read-out: COLLLA disease control
[3] = tested on: Mycosphaerella graminicola=Septoria tritici; experiment: Speckled Leaf Blotch of Wheat (SEPTTR) whole-plant disease control test; settings: Mycosphaerella, foliar, 75 ppm applied to foliage of wheat; read-out: SEPTTR disease control

| SMILES | pest or weed control at 200 ppm (Erysiphe cichoracaerum) [%] | pest or weed control at 200 ppm (Leptosphaeria nodorum) [%] | pest or weed control at 200 ppm [1] [%] | pest or weed control at 200 ppm [2] [%] | pest or weed control at 200 ppm (Phytophthora infestans) [%] | pest or weed control at 200 ppm (Colletotricum lagenarium) [%] | pest or weed control at 75 ppm [3] [%] | pest or weed control at 75 ppm (Leptosphaeria nodorum; 75 ppm (footnote b), wheat foliage) [%] | pest or weed control at 8.3 ppm ([1]; read-out: PYRIOR disease control, 8.3 ppm (footnote c), rice foliage) [%] |
| --- | --- | --- | --- | --- | --- | --- | --- | --- | --- |
| Clc1csc2ncnc(NCCc3ccc(Oc4ncnc5sccc45)cc3)c12 [Compound 54] | 50 to 79 | 50 to 79 | 80 to 100 | 80 to 100 | 80 to 100 | 80 to 100 | 0 to 49 |  |  |
| Cc1cccc(Oc2ccc(CCNc3ncnc4scc(Cl)c34)cc2)n1 [Compound 85] | 80 to 100 | 80 to 100 | 80 to 100 | 80 to 100 | 80 to 100 | 50 to 79 | 80 to 100 |  |  |
| O=C(Nc1ccc(CCNc2ncnc3scc(Cl)c23)cc1)c1ccnc(Cl)c1 [Compound 99, 2-Chloro-N-{4-[2-(5-chlorothieno[2,3,-d]pyrimidin-4-ylamino)ethyl]phenyl}isonicotinamide] | 0 to 49 | 0 to 49 | 80 to 100 | 80 to 100 | 50 to 79 | 50 to 79 | 0 to 49 |  |  |
| Clc1cccc(Oc2ccc(CCNc3ncnc4scc(Cl)c34)cc2)n1 [Compound 37] | 80 to 100 | 0 to 49 | 80 to 100 | 80 to 100 | 0 to 49 | 80 to 100 | 50 to 79 |  |  |
| FC(F)(F)COc1ccnc(Oc2ccc(CCNc3ncnc4scc(Cl)c34)cc2)n1 [Compound 44] | 50 to 79 | 80 to 100 | 80 to 100 | 80 to 100 | 50 to 79 | 0 to 49 | 80 to 100 |  |  |
| N#Cc1cc[n+]([O-])c(Oc2ccc(CCNc3ncnc4scc(Cl)c34)cc2)c1 [Compound 22] | 50 to 79 | 50 to 79 | 80 to 100 | 80 to 100 | 50 to 79 | 50 to 79 | 0 to 49 |  |  |
| Clc1csc2ncnc(NCCc3ccc(Oc4ccc(Br)cn4)cc3)c12 [Compound 7, {2-[4-(5-Bromopyridin-2-yloxy)phenyl]ethyl}-(5-chlorothieno[2,3-d]pyrimidin-4-yl}amine] | 80 to 100 | 80 to 100 | 50 to 79 | 80 to 100 | 0 to 49 | 50 to 79 | 50 to 79 |  |  |
| Clc1ccc(COc2ccc(CCNc3ncnc4scc(Cl)c34)cc2)cn1 [Compound 104] | 0 to 49 | 0 to 49 | 80 to 100 | 80 to 100 | 0 to 49 | 50 to 79 | 50 to 79 |  |  |
| Fc1nc(F)c(F)c(Oc2ccc(CCNc3ncnc4scc(Cl)c34)cc2)c1F [Compound 110] | 80 to 100 |  |  | 80 to 100 | 0 to 49 | 50 to 79 | 50 to 79 | 50 to 79 | 80 to 100 |
| CO/N=C\c1ccc(Oc2ccc(CCNc3ncnc4scc(Cl)c34)cc2)nc1 [Compound 34, 6-{4-[2-(5-Chlorothieno[2,3-d]pyrimidin-4-ylamino)ethyl]phenoxy}pyridine-3-carbaldehyde O-methyloxime] | 80 to 100 | 0 to 49 | 80 to 100 | 80 to 100 | 0 to 49 | 80 to 100 | 50 to 79 |  |  |
| N#Cc1cccc(Oc2ccc(CCNc3ncnc4scc(Cl)c34)cc2)n1 [Compound 32] | 80 to 100 | 0 to 49 | 80 to 100 | 80 to 100 | 50 to 79 | 50 to 79 | 50 to 79 |  |  |
| CN(C)NC(=O)c1ccc(Oc2ccc(CCNc3ncnc4scc(Cl)c34)cc2)nc1 [Compound 33, 6-{4-[2-(5-Chlorothieno[2,3-d]pyrimidin-4-ylamino)ethyl]phenoxy}nicotinic acid N′,N′-dimethylhydrazide] | 0 to 49 | 0 to 49 | 80 to 100 | 80 to 100 | 50 to 79 | 50 to 79 | 0 to 49 |  |  |
| FC(F)(F)c1ccc(Oc2ccc(CCNc3ncnc4scc(Cl)c34)cc2)cn1 [Compound 65] | 50 to 79 | 50 to 79 | 80 to 100 | 80 to 100 | 80 to 100 | 80 to 100 | 80 to 100 |  |  |
| Clc1csc2ncnc(NCCc3ccc(Oc4cccc(C(Cl)(Cl)Cl)n4)cc3)c12 [Compound 77] | 0 to 49 | 80 to 100 | 80 to 100 | 80 to 100 | 0 to 49 | 0 to 49 | 0 to 49 |  |  |
| FC(F)(F)c1cc(Cl)nc(Oc2ccc(CCNc3ncnc4scc(Cl)c34)cc2)c1 [Compound 62] | 50 to 79 | 0 to 49 | 80 to 100 | 80 to 100 | 0 to 49 | 80 to 100 | 50 to 79 |  |  |
| Fc1cccc(Oc2ccc(CCNc3ncnc4scc(Cl)c34)cc2)n1 [Compound 36] | 80 to 100 | 0 to 49 | 80 to 100 | 80 to 100 | 0 to 49 | 50 to 79 | 50 to 79 |  |  |
| COc1nc(OC)nc(Oc2ccc(CCNc3ncnc4scc(Cl)c34)cc2)n1 [Compound 26] | 0 to 49 | 0 to 49 | 50 to 79 | 80 to 100 | 0 to 49 | 0 to 49 | 0 to 49 |  |  |
